Experimental data reported in patent US20260297070A1, “CYCLIC [COMPOUND LEFT OUT] WRN INHIBITORS” (Nimbus Wadjet, Inc., priority 2023, published 2026).

Target: T1, human Werner helicase (WRN-BV08, Uniprot Q14191, amino acids 517-1235 with L1074F point mutation) (Homo sapiens, UniProt Q14191, L1074F)
T1 construct: Uniprot Q14191, amino acids 517-1235 with L1074F point mutation; TEV-cleavable 8×His (C, cleaved yes); made in house; host or cells: Sf9 insect cells (baculovirus)
Assay: WRN (BV08) ADP-Glo Assay
Type: biochemical
Details: 0.15 nM WRN, 5 μM ATP, 0.1 nM DNA duplex, 15 min preincubation, 60 min at 25° C., pH 7.5, 1% DMSO; read-out: ADP-Glo_hWRN_IC50
Outline: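 0.15 nM WRN (aa 517-1235, L1074F, Sf9-expressed, tag cleaved) preincubated 15 min at 25 °C with compound, then 5 μM ATP and 0.1 nM DNA duplex added for 60 min. Buffer: 20 mM Bicine pH 7.5, 1 mM MgCl2, 10 mM KCl, 1 mM TCEP; 1% DMSO. ADP-Glo luminescence; IC50 by 4-parameter fit.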

T1 sequence (Q14191 with tags, fused parts or gaps L1074F limits assumed): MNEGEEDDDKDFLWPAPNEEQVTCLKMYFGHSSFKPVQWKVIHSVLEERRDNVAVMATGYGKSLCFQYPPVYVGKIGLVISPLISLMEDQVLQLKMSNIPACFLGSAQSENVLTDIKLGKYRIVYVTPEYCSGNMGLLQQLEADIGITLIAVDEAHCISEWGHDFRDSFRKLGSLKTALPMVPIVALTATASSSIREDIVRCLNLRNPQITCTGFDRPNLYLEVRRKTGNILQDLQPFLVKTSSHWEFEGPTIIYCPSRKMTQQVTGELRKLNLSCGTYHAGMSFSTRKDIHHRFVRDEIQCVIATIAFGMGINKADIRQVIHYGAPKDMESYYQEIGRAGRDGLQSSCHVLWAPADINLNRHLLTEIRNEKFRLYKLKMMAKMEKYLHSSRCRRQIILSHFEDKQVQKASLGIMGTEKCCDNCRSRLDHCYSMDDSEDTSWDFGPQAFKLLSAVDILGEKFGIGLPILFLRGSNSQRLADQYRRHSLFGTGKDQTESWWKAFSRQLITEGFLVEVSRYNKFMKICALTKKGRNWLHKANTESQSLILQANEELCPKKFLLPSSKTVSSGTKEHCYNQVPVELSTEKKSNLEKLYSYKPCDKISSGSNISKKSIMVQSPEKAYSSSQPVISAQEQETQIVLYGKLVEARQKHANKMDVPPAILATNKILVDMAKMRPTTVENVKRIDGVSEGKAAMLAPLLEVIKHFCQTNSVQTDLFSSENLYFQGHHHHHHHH

IC50, < 500 nM:
COc1cc(CN(C(=O)Cn2cc(-c3ccc(F)cc3)cn2)[C@@H]2C=CS(=O)(=O)C2)ccn1 [I-26, N-[(3R)-1,1-dioxo-2,3-dihydro-1lambda6-thiophen-3-yl]-2-[4-(4-fluorophenyl)-1H-pyrazol-1-yl]-N-[(2-methoxypyridin-4-yl)methyl]acetamide]
COC(C(=O)N(Cc1ccnc(C(C)(C)O)c1)C1C=CS(=O)(=O)C1)c1ccc(-c2ccc(F)cc2)cc1F (centres unmarked) [I-28, 2-{3,4′-difluoro-[1,1′-biphenyl]-4-yl}-N-(1,1-dioxo-2,3-dihydro-1lambda6-thiophen-3-yl)-N-{[2-(2-hydroxypropan-2-yl)pyridin-4-yl]methyl}-2-methoxyacetamide]
COc1cc(CN(C(=O)Cc2ccc(S(F)(F)(F)(F)F)cc2)C2C=CS(=O)(=O)C2)ccn1 (centres unmarked) [I-29, N-(1,1-dioxo-2,3-dihydro-1lambda6-thiophen-3-yl)-N-[(2-methoxypyridin-4-yl)methyl]-2-[4-(pentafluoro-lambda6-sulfanyl)phenyl]acetamide]
COCCOC(C(=O)N(Cc1ccnc(C(C)(C)O)c1)[C@@H]1C=CS(=O)(=O)C1)c1ccc(-c2ccc(F)c(F)c2)cc1F (stereo partly drawn) [I-30, N-[(3R)-1,1-dioxo-2,3-dihydro-1lambda6-thiophen-3-yl]-N-{[2-(2-hydroxypropan-2-yl)pyridin-4-yl]methyl}-2-(2-methoxyethoxy)-2-{3,3′,4′-trifluoro-[1,1′-biphenyl]-4-yl}acetamide]
CC(C)(O)c1cc(CN(C(=O)Cc2ccc(-c3ccc(F)c(F)c3)cc2F)C2C=CS(=O)(=O)C2)ccn1 (centres unmarked) [I-32, N-(1,1-dioxo-2,3-dihydro-1lambda6-thiophen-3-yl)-N-{[2-(2-hydroxypropan-2-yl)pyridin-4-yl]methyl}-2-{3,3′,4′-trifluoro-[1,1′-biphenyl]-4-yl}acetamide]
CN(C)C(=O)C(C(=O)N(Cc1ccnc(C(C)(C)O)c1)C1C=CS(=O)(=O)C1)c1ccc(-c2ccc(F)cc2)cc1 (centres unmarked) [I-34, N-(1,1-dioxo-2,3-dihydro-1lambda6-thiophen-3-yl)-2-{4′-fluoro-[1,1′-biphenyl]-4-yl}-N-{[2-(2-hydroxypropan-2-yl)pyridin-4-yl]methyl}-N′,N′-dimethylpropanediamide]
CSC(C(=O)N(Cc1ccnc(C(C)(C)O)c1)C1C=CS(=O)(=O)C1)c1ccc(-c2ccc(F)c(F)c2)cc1F (centres unmarked) [I-36, N-(1,1-dioxido-2,3-dihydrothiophen-3-yl)-N-((2-(2-hydroxypropan-2-yl)pyridin-4-yl)methyl)-2-(methylthio)-2-(3,3′,4′-trifluoro-[1,1′-biphenyl]-4-yl)acetamide]
COc1cc(CN(C(=O)C(C(=O)N(C)C)c2ccc(-c3ccc(F)c(F)c3)cc2F)C2C=CS(=O)(=O)C2)ccn1 (centres unmarked) [I-37, N′-(1,1-dioxo-2,3-dihydro-1lambda6-thiophen-3-yl)-N′-[(2-methoxypyridin-4-yl)methyl]-N,N-dimethyl-2-{3,3′,4′-trifluoro-[1,1′-biphenyl]-4-yl}propanediamide]
CC(C)(O)c1cc(CN(C(=O)C(F)(F)c2ccc(-c3ccc(F)c(F)c3)cc2F)[C@@H]2C=CS(=O)(=O)C2)ccn1 [I-38, (R)—N-(1,1-dioxido-2,3-dihydrothiophen-3-yl)-2,2-difluoro-N-((2-(2-hydroxypropan-2-yl)pyridin-4-yl)methyl)-2-(3,3′,4′-trifluoro-[1,1′-biphenyl]-4-yl)acetamide]
CC(C)(O)c1cc(CN(C(=O)Cc2ccc(S(F)(F)(F)(F)F)cc2)C2C=CS(=O)(=O)C2)ccn1 (centres unmarked) [I-39, N-(1,1-dioxo-2,3-dihydro-1lambda6-thiophen-3-yl)-N-{[2-(2-hydroxypropan-2-yl)pyridin-4-yl]methyl}-2-[4-(pentafluoro-lambda6-sulfanyl)phenyl]acetamide]
O=C(Cc1ccc(S(F)(F)(F)(F)F)cc1)N(Cc1nc(C2CC2)cs1)C1C=CS(=O)(=O)C1 (centres unmarked) [I-41, N-[(4-cyclopropyl-1,3-thiazol-2-yl)methyl]-N-(1,1-dioxo-2,3-dihydro-1lambda6-thiophen-3-yl)-2-[4-(pentafluoro-lambda6-sulfanyl)phenyl]acetamide]
CC(C)(O)c1cc(CN(C(=O)Cn2cc(-c3ccc(F)cc3)cn2)C2C=CS(=O)(=O)C2)ccn1 (centres unmarked) [I-42, N-(1,1-dioxo-2,3-dihydro-1lambda6-thiophen-3-yl)-2-[4-(4-fluorophenyl)-1H-pyrazol-1-yl]-N-{[2-(2-hydroxypropan-2-yl)pyridin-4-yl]methyl}acetamide]
CC(C)(O)c1cc(CN(C(=O)Cn2cc(-c3ccccc3)cn2)[C@@H]2C=CS(=O)(=O)C2)ccn1 [I-43, N-[(3R)-1,1-dioxo-2,3-dihydro-1lambda6-thiophen-3-yl]-N-{[2-(2-hydroxypropan-2-yl)pyridin-4-yl]methyl}-2-(4-phenyl-1H-pyrazol-1-yl)acetamide]
CC(C)(O)c1cc(CN(C(=O)Cc2ccc(S(F)(F)(F)(F)F)cc2F)C2C=CS(=O)(=O)C2)ccn1 (centres unmarked) [I-44, N-(1,1-dioxo-2,3-dihydro-1lambda6-thiophen-3-yl)-2-[2-fluoro-4-(pentafluoro-lambda6-sulfanyl)phenyl]-N-{[2-(2-hydroxypropan-2-yl)pyridin-4-yl]methyl}acetamide]
COc1cc(CN(C(=O)C(OC)c2ccc(-c3ccc(F)c(F)c3)cc2F)C2C=CS(=O)(=O)C2)ccn1 (centres unmarked) [I-45, N-(1,1-dioxo-2,3-dihydro-1lambda6-thiophen-3-yl)-2-methoxy-N-[(2-methoxypyridin-4-yl)methyl]-2-{3,3′,4′-trifluoro-[1,1′-biphenyl]-4-yl}acetamide]
COc1cc(CN(C(=O)C(C(=O)N(C)C)c2ccc(-c3ccc(F)cc3)cc2F)C2C=CS(=O)(=O)C2)ccn1 (centres unmarked) [I-46, 2-{3,4′-difluoro-[1,1′-biphenyl]-4-yl}-N-(1,1-dioxo-2,3-dihydro-1lambda6-thiophen-3-yl)-N-[(2-methoxypyridin-4-yl)methyl]-N′,N′-dimethylpropanediamide]
COC(C(=O)N(Cc1nc(C2CC2)cs1)C1C=CS(=O)(=O)C1)c1ccc(-c2ccc(F)c(F)c2)cc1F (centres unmarked) [I-47, N-[(4-cyclopropyl-1,3-thiazol-2-yl)methyl]-N-(1,1-dioxo-2,3-dihydro-1lambda6-thiophen-3-yl)-2-methoxy-2-{3,3′,4′-trifluoro-[1,1′-biphenyl]-4-yl}acetamide]
O=C(C(c1ccc(-c2ccc(F)c(F)c2)cc1F)n1cccn1)N(Cc1ccncc1)C1C=CS(=O)(=O)C1 (centres unmarked) [I-48, N-(1,1-dioxido-2,3-dihydrothiophen-3-yl)-2-(1H-pyrazol-1-yl)-N-(pyridin-4-ylmethyl)-2-(3,3′,4′-trifluoro-[1,1′-biphenyl]-4-yl)acetamide]
O=C(Cn1cc(-c2ccc(F)cc2)cn1)N(Cc1nc(C2CC2)cs1)C1C=CS(=O)(=O)C1 (centres unmarked) [I-49, N-[(4-cyclopropyl-1,3-thiazol-2-yl)methyl]-N-(1,1-dioxo-2,3-dihydro-1lambda6-thiophen-3-yl)-2-[4-(4-fluorophenyl)-1H-pyrazol-1-yl]acetamide]
CC(C)(O)c1cc(CN(C(=O)Cc2ccc(-c3ccc(F)cc3)cc2F)C2C=CS(=O)(=O)C2)ccn1 (centres unmarked) [I-52, 2-{3,4′-difluoro-[1,1′-biphenyl]-4-yl}-N-(1,1-dioxo-2,3-dihydro-1lambda6-thiophen-3-yl)-N-{[2-(2-hydroxypropan-2-yl)pyridin-4-yl]methyl}acetamide]
COc1cc(CN(C(=O)C2CNc3cc(-c4ccc(F)cc4)ccc32)[C@@H]2C=CS(=O)(=O)C2)ccn1 (some centres unmarked) [I-53, N-(1,1-dioxido-2,3-dihydrothiophen-3-yl)-6-(4-fluorophenyl)-N-((2-methoxypyridin-4-yl)methyl)indoline-3-carboxamide]
COc1cc(CN(C(=O)Cn2cc(-c3cccc(F)c3)cn2)C2C=CS(=O)(=O)C2)ccn1 (centres unmarked) [I-54, N-(1,1-dioxo-2,3-dihydro-1lambda6-thiophen-3-yl)-2-[4-(3-fluorophenyl)-1H-pyrazol-1-yl]-N-[(2-methoxypyridin-4-yl)methyl]acetamide]
COc1cc(CN(C(=O)C(C(=O)N(C)C)c2ccc(-c3ccc(F)cc3)cc2)C2C=CS(=O)(=O)C2)ccn1 (centres unmarked) [I-55, N-(1,1-dioxo-2,3-dihydro-1lambda6-thiophen-3-yl)-2-{4′-fluoro-[1,1′-biphenyl]-4-yl}-N-[(2-methoxypyridin-4-yl)methyl]-N′,N′-dimethylpropanediamide]
COc1cc(CN(C(=O)Cc2ccc(-n3cccc3C)cc2F)[C@@H]2C=CS(=O)(=O)C2)ccn1 [I-56, N-[(3R)-1,1-dioxo-2,3-dihydro-1lambda6-thiophen-3-yl]-2-[2-fluoro-4-(2-methyl-1H-pyrrol-1-yl)phenyl]-N-[(2-methoxypyridin-4-yl)methyl]acetamide]
CC(C)(O)c1cc(CN(C(=O)Cn2cc(-c3ccc(Cl)cc3)cn2)C2C=CS(=O)(=O)C2)ccn1 (centres unmarked) [I-58, 2-[4-(4-chlorophenyl)-1H-pyrazol-1-yl]-N-(1,1-dioxo-2,3-dihydro-1lambda6-thiophen-3-yl)-N-{[2-(2-hydroxypropan-2-yl)pyridin-4-yl]methyl}acetamide]
CC(C)(O)c1cc(CN(C(=O)Cn2cc(-c3cccc(F)c3)cn2)C2C=CS(=O)(=O)C2)ccn1 (centres unmarked) [I-59, N-(1,1-dioxo-2,3-dihydro-1lambda6-thiophen-3-yl)-2-[4-(3-fluorophenyl)-1H-pyrazol-1-yl]-N-{[2-(2-hydroxypropan-2-yl)pyridin-4-yl]methyl}acetamide]
